Measurements: patent US20030129222A1, “Liposomal imexon” (priority 2000, published 2003)
Read-outs that look alike come from different tables or passages of the source.

Assays:
[1] = substituent constant, from Hansch and Leo or calculated using Clog P software; cited from earlier work
[2] = system: PIE 2-3 sarcoma; conditions: cited from earlier work; for activity against PIE 2-3 sarcoma: 13: over a 10-fold dose range
[3] = system: L1210 leukemia, Mdr; assay: Cytotoxicity in tumor cell culture, MTT assay; format: cell-based, murine; conditions: Mus musculus
Text: (§1) Relative potencies of the N-substituted 2-cyanoaziridine-1-carboxamides in a panel of tumor cell cultures are compared in Table 3. This panel includes the following lines of human tumor cells: sensitive and imexon-resistant lines of multiple myeloma (Matsuoka et al., 1967); ovarian carcinoma resistant to standard drugs (Hamilton et al., 1984); melanoma with a slow growth fraction (Girard et al., 1973); breast carcinoma including sensitive, doxorubicin-resistant (P-glycoprotein-positive) (Taylor et al., 1991), and mitoxantrone-resistant (P-glycoprotein-negative) (Futscher et al., 1994) lines; sensitive and multidrug-resistant colon carcinoma (Noguchi et al., 1979; Dalton et al., 1988); and multidrug-resistant lung carcinoma (P-glycoprotein-negative) (Girard et al., 1973). It also has sensitive (Goldin et al., 1961) and multidrug-resistant (P-glycoprotein-positive) (Salmon and Hersh, 1994) murine L1210 leukemia cells.

[4] = system: L1210 leukemia, Sens; assay: Cytotoxicity in tumor cell culture, MTT assay; format: cell-based, murine; conditions: Mus musculus
Text: as §1

[5] = system: fresh human tumor-colony-forming cells; assay: Human tumor cloning assay, eight tumor cell types together; format: cell-based
Protocol: (§2) Assays of antitumor agents against fresh human tumor-colony-forming cells provide results that predict better the responses obtained in treating cancer patients than those obtained with long established human cell lines (Salmon et al., 1981). For this reason, the N-phenyl derivative 13 was tested against a variety of fresh human tumors obtained at the Arizona Cancer Center using established methodology (Salmon and Hersh, 1994).

[6] = system: Stomach (cloned fresh human tumors); assay: Human tumor cloning assay, [3H]thymine uptake by tumor-colony-forming cells; format: cell-based; conditions: No. tested 1
Protocol: as §2

[7] = system: Breast (cloned fresh human tumors); assay: as above; format: cell-based; conditions: No. tested 4
Protocol: as §2

[8] = system: Sarcoma (cloned fresh human tumors); assay: as above; format: cell-based; conditions: for no. sensitive: Sarcoma, No. tested 8
Protocol: as §2

[9] = system: Ovary (cloned fresh human tumors); assay: as above; format: cell-based; conditions: No. tested 12
Protocol: as §2

[10] = system: Myeloma (cloned fresh human tumors); assay: as above; format: cell-based; conditions: No. tested 3
Protocol: as §2

[11] = system: Other Gynecologic (cloned fresh human tumors); assay: as above; format: cell-based; conditions: No. tested 4
Protocol: as §2

[12] = system: Melanoma (cloned fresh human tumors); assay: as above; format: cell-based; conditions: No. tested 10
Protocol: as §2

[13] = system: Lung (cloned fresh human tumors); assay: as above; format: cell-based; conditions: No. tested 2
Protocol: as §2

[14] = system: 8226 myeloma, Res (imexon-resistant); assay: Cytotoxicity in tumor cell culture, SRB assay; format: cell-based; conditions: Homo sapiens, read-out: IC50 against human mouse tumors, 8226 myeloma Res
Text: as §1

[15] = system: WiDr colon, res; assay: Cytotoxicity in tumor cell culture, SRB assay; format: cell-based; conditions: Homo sapiens, WiDr, read-out: IC50 against human mouse tumors, WiDr colon res
Text: as §1

[16] = system: WiDr colon, Sens; assay: Cytotoxicity in tumor cell culture, SRB assay; format: cell-based
Text: as §1

[17] = system: A-549 lung; assay: Cytotoxicity in tumor cell culture, SRB assay; format: cell-based, human
Text: as §1

[18] = system: OVCAR3 ovarian; assay: Cytotoxicity in tumor cell culture, SRB assay; format: cell-based, human
Text: as §1

[19] = system: 8226 myeloma, Sens (drug-sensitive); assay: Cytotoxicity in tumor cell culture, SRB assay; format: cell-based, human; conditions: Homo sapiens
Text: as §1

[20] = system: MCF7 breast, Sens; assay: Cytotoxicity in tumor cell culture, SRB assay; format: cell-based, human
Text: as §1

[21] = system: MCF7 breast, mitox (mitoxantrone-resistant); assay: Cytotoxicity in tumor cell culture, SRB assay; format: cell-based, human; conditions: Homo sapiens
Text: as §1

[22] = system: MCF7 breast, Dox (doxorubicin-resistant); assay: Cytotoxicity in tumor cell culture, SRB assay; format: cell-based, human; conditions: Homo sapiens
Text: as §1

[23] = system: A375 melan; assay: Cytotoxicity in tumor cell culture, SRB assay; format: cell-based, human
Text: as §1

[24] = system: leukocytes; conditions: in vivo; cited from earlier work
[25] = cited from earlier work
[26] = cited from earlier work; remark: listed apart in the source
[27] = L1210, MTT assay, multidrug-resistant, read-out: IC50 against human mouse tumors, L1210 leukemia Mdr
[28] = L1210, MTT assay, read-out: IC50 against human mouse tumors, L1210 leukemia Sens
[29] = 13 2.0 μM (second column of 13)
[30] = Homo sapiens, WiDr; read-out: IC50 against human mouse tumors, WiDr colon Sens
[31] = Homo sapiens, A549; read-out: IC50 against human mouse tumors, A-549 lung
[32] = Homo sapiens, OVCAR-3; read-out: IC50 against human mouse tumors, OVCAR3 ovarian
[33] = against sensitive myeloma, values repeated from Table 3 (μM there), read-out: IC50
[34] = drug-sensitive line, read-out: IC50 against human mouse tumors, 8226 myeloma Sens
[35] = Homo sapiens, MCF7; read-out: IC50 against human mouse tumors, MCF7 breast Sens
[36] = MCF7, mitoxantrone-resistant, read-out: IC50 against human mouse tumors, MCF7 breast mitox
[37] = MCF7, doxorubicin-resistant, read-out: IC50 against human mouse tumors, MCF7 breast Dox
[38] = Homo sapiens, A-375; read-out: IC50 against human mouse tumors, A375 melan

## N#CC1CN1C(=O)Nc1ccccc1 (stereo not shown) [Compound 13, 2-Cyanoaziridine-1-(N-phenyl)carboxamide]
other
  melting point: 88 to 90 °C
[1]
  π: 2.00
[2]
  activity against PIE 2-3 sarcoma: active
[3]; [27]
  IC50: 11 µM
[4]; [28]
  IC50: 1.2 µM
[5]; 13 at 0.2 μM versus imexon at 1.0 μM
  effectiveness compared with imexon: about as effective as imexon
[5]; listed as N-phenyl derivative
  activity and potency compared with imexon in fresh human tumor cells: more potent and equally effective to imexon
[6]; 13 0.2 μM
  no. sensitive: 1
[6]; [29]
  no. sensitive: 1
[6]; 13 2.0 μM (third column of 13)
  no. sensitive: 1
[7]; 13 0.2 μM
  no. sensitive: 2
[7]; [29]
  no. sensitive: 2
[7]; 13 2.0 μM (third column of 13)
  no. sensitive: 3
[8]
  activity against the sarcoma cells compared with imexon: superior
[8]; 13 0.2 μM
  no. sensitive: 2/2
[8]; [29]
  no. sensitive: 4
[8]; 13 2.0 μM (third column of 13)
  no. sensitive: 5
[9]; 13 0.2 μM
  no. sensitive: 3/10
[9]; [29]
  no. sensitive: 10/11
[9]; 13 2.0 μM (third column of 13)
  no. sensitive: 10
[10]; 13 0.2 μM
  no. sensitive: 2/2
[10]; [29]
  no. sensitive: 2/2
[10]; 13 2.0 μM (third column of 13)
  no. sensitive: 2/2
[11]; 13 0.2 μM
  no. sensitive: 0
[11]; [29]
  no. sensitive: 2
[11]; 13 2.0 μM (third column of 13)
  no. sensitive: 3
[12]; 13 0.2 μM
  no. sensitive: 3/5
[12]; [29]
  no. sensitive: 8
[12]; 13 2.0 μM (third column of 13)
  no. sensitive: 10
[13]; 13 0.2 μM
  no. sensitive: 0
[13]; [29]
  no. sensitive: 1
[13]; 13 2.0 μM (third column of 13)
  no. sensitive: 2
[14]; line made resistant to imexon
  IC50: 8 µM
[15]; multidrug-resistant
  IC50: 12 µM
[16]; [30]
  IC50: 5 µM
[17]; [31]
  IC50: 9 µM
[18]; [32]
  IC50: 6.8 µM
[19]; read-out: Log(1/C) (converted)
  IC50: 5.37 µM
[19]; [33]
  IC50: 5.3 µM
[19]; [34]
  IC50: 5.3 µM
[20]; [35]
  IC50: 2.9 µM
[21]; [36]
  IC50: 4.3 µM
[22]; [37]
  IC50: 2.6 µM
[23]; [38]
  IC50: 11 µM

## N#CC1CN1C(N)=O (stereo not shown) [Compound 1, 2-cyanoaziridine-1-carboxamide]
[1]
  π: 0
[2]
  activity against PIE 2-3 sarcoma: active
[2]; rat, in vivo
  toxicity: low toxicity
[24]
  effect on number of leukocytes: increased the number of leukocytes
[3]; L1210, read-out: IC50 against human mouse tumors, L1210 leukemia Mdr
  IC50: > 90 µM
[4]; L1210, read-out: IC50 against human mouse tumors, L1210 leukemia Sens
  IC50: > 90 µM
[14]
  IC50: 432 µM
[15]
  IC50: > 280 µM
[16]; Homo sapiens, WiDr, read-out: IC50 against human mouse tumors, WiDr colon Sens
  IC50: > 280 µM
[17]; Homo sapiens, A549, read-out: IC50 against human mouse tumors, A-549 lung
  IC50: > 280 µM
[18]; Homo sapiens, OVCAR-3, read-out: IC50 against human mouse tumors, OVCAR3 ovarian
  IC50: > 90 µM
[19]
  IC50: 288 µM
[19]; read-out: IC50 against human mouse tumors, 8226 myeloma Sens
  IC50: 288 µM
[19]; read-out: Log(1/C) (converted)
  IC50: 288 µM
[20]; Homo sapiens, MCF7, read-out: IC50 against human mouse tumors, MCF7 breast Sens
  IC50: > 54 µM
[21]; MCF7, read-out: IC50 against human mouse tumors, MCF7 breast mitox
  IC50: > 54 µM
[22]; MCF7, read-out: IC50 against human mouse tumors, MCF7 breast Dox
  IC50: > 54 µM
[23]; Homo sapiens, A-375, read-out: IC50 against human mouse tumors, A375 melan
  IC50: > 90 µM

## N[C@@H](Cc1ccc(N(CCCl)CCCl)cc1)C(=O)O [Melphalan, 4-[bis(2-chloroethyl)amino]-L-phenylalanine]
[25]; multiple myeloma, oral administration
  patients showing a favorable response: one third to one half

## CO[C@@]12[C@H](COC(N)=O)C3=C(C(=O)C(C)=C(N)C3=O)N1C[C@@H]1N[C@@H]12 [Mitomycin]
[26]; 10 mg I.V.
  maximal serum concentration: 0.52 mg/mL
[26]; 20 mg I.V.
  maximal serum concentration: 1.7 mg/mL
[26]; 30 mg I.V.
  maximal serum concentration: 2.4 mg/mL
[26]; 30 mg bolus injection
  time required to reduce the serum concentration by about 50%: 17 min
[26]; in vivo
  dose excreted unchanged in the urine: Approximately 10%

## CNC(=O)N1CC1C#N (stereo not shown) [Compound 6, 2-Cyanoaziridine-1-(N-methyl) carboxainide]
other
  melting point: 98 to 100 °C
[1]
  π: 0.50
[3]; [27]
  IC50: 21 µM
[4]; [28]
  IC50: 8.7 µM
[14]; line made resistant to imexon
  IC50: 26 µM
[15]; multidrug-resistant
  IC50: 23 µM
[16]; [30]
  IC50: 21 µM
[17]; [31]
  IC50: 22 µM
[18]; [32]
  IC50: 14 µM
[19]; against sensitive myeloma, read-out: Log(1/C) (converted)
  IC50: 25.7 µM
[19]; [33]
  IC50: 26 µM
[19]; [34]
  IC50: 26 µM
[20]; [35]
  IC50: 27 µM
[21]; [36]
  IC50: 18 µM
[22]; [37]
  IC50: 17 µM
[23]; [38]
  IC50: 17 µM

## CS(=O)(=O)OCCCCOS(C)(=O)=O [Busulfan, 1,4-butanediol dimethanesulfonate]
[25]; previously untreated chronic myelogenous leukemia
  adults obtaining hematologic remission: Approximately 90%
